In general, melting point refers to the temperature of the solid-liquid transition.

The target of data set [1] is PARP-1 enzyme (Homo sapiens, UniProt P09874). Description: In vitro filtration assay for PARP-1 inhibitory activity. It is filed as biochemical. To be noted: [32P]-NAD, histones, nicked DNA; read-out: in vitro filter assay PARP-1 pIC50 (converted). As to the method:
In Vitro Filtration Assay for PARP-1 Inhibitory Activity
Compounds of the present invention were tested in an in vitro filtration assay assessing PARP-1 activity (triggered in the presence of nicked DNA) by means of its histone poly (ADP-ribosyl)ation activity using [^32P]-NAD as ADP-ribosyl donor. The radioactive ribosylated histones were precipitated by trichloroacetic acid (TCA) in 96-well filterplates and the incorporated [^32P] measured using a scintillation counter
A mixture of histones (stock solution: 5 mg/ml in H2O), NAD^+ (stock solution: 100 mM in H2O), and [^32P]-NAD^+ in incubation buffer (50 mM Tris/HCl, pH 8; 0.2 mM DTT; 4 mM MgCl2) was made. A mixture of the PARP-1 enzyme (5-10 μg/ml) and nicked DNA was also made. The nicked DNA was prepared as described in the in vitro SPA for PARP-1 inhibitory activity. Seventy-five μl of the PARP-1 enzyme/DNA mixture together with 1 μl of compound in DMSO and 25 μl of histones-NAD^+/[^32P]-NAD^+ mixture was added per well of a 96-well filterplate (0.45 μm, supplier Millipore). The final concentrations in the incubation mixture were 2 μg/ml for the histones, 0.1 mM for the NAD^+, […] (0.5 μC) for the [^32P]-NAD^+ and 2 μg/ml for the nicked DNA. Plates were incubated for 15 min. at room temperature and the reaction was terminated by the addition of 10 μl ice cold 100% TCA followed by the addition of 10 μl ice-cold BSA solution (1% in H2O). The protein fraction was allowed to precipitate for 10 min. at 4° C. and plates were vacuum filtered. The plates were subsequently washed with, for each well, 1 ml of 10% ice cold TCA, 1 ml of 5% ice cold TCA and 1 ml of 5% TCA at room temperature. Finally 100 μl of scintillation solution (Microscint 40, Packard) was added to each well and the plates were transferred to a TopCountNXT™ (supplier: Packard) for scintillation counting and values were expressed as counts per minute (cpm). For each experiment, controls (containing PARP-1 enzyme and DMSO without compound), a blank incubation (containing DMSO but no PARP-1 enzyme or compound) and samples (containing PARP-1 enzyme and compound dissolved in DMSO) were run in parallel. All compounds tested were dissolved and eventually further diluted in DMSO. In first instance, compounds were tested at a concentration of 10^−5M. […] In each test, the blank value was subtracted from both the control and the sample values. The control sample represented maximal PARP-1 enzyme activity. For each sample, the amount of cpm was expressed as a percentage of the mean cpm value of the controls. […] Herein the effects of test compounds are expressed as pIC50 (the negative log value of the IC50-value).

Chain of PARP-1 enzyme (P09874 whole entry): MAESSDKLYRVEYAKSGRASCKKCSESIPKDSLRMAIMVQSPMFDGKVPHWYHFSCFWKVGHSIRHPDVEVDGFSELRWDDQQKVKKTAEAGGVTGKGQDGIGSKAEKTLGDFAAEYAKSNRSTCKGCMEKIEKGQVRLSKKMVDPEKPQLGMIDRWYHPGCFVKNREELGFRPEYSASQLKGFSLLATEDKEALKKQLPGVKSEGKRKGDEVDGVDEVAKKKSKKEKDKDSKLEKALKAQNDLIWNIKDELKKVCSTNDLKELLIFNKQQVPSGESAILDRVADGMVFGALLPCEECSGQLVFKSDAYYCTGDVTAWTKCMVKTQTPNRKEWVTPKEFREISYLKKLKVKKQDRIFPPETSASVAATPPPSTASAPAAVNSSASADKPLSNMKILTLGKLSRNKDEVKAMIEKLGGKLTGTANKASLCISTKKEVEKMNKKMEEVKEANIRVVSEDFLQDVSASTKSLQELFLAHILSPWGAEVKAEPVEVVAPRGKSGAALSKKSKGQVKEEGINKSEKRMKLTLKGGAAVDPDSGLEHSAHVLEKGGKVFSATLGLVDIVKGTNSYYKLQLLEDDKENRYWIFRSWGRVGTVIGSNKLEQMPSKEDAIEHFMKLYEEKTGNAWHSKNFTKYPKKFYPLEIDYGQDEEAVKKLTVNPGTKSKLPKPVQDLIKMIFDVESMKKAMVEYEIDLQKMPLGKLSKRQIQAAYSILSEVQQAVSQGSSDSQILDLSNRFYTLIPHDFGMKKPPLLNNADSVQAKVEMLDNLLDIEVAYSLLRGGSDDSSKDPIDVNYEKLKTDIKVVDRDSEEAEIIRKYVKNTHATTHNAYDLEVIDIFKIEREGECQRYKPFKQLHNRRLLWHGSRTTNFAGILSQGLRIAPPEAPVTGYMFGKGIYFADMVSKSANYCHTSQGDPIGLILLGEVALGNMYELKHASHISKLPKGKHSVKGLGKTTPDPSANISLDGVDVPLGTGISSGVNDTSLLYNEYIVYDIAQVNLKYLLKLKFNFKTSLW

Regarding `CCCCn1cc(C2CCN(CCCNc3nc4ccccc4c(=O)[nH]3)CC2)c2ccccc21` [Compound 28], in data set [1], the IC50 was 2820 nM. Take `O=c1[nH]c(NCCCN2CCN(c3n[nH]c4ccccc34)CC2)nc2ccccc12` [Compound 22]: the IC50 in data set [1] is 467 nM. Take `O=c1[nH]c(NCCCN2CCN(c3n[nH]c4cc(F)ccc34)CC2)nc2ccccc12` [Compound 27]: the IC50 in data set [1] was 424 nM. Still for that read-out and setting: the value for `Nc1c(Cl)cc(C(=O)NC2CCN(CCCNc3nc(O)c4ccccc4n3)CC2)c2c1CCO2` [Compound 45] was 3050 nM; that for `CC1(C)Cc2c(N)c(Cl)cc(C(=O)NC3CCN(CCCNc4nc(O)c5ccccc5n4)CC3)c2O1` [Compound 4] was 3650 nM; that for `O=c1nc(NCCCN2CCC(Nc3nccc4ccccc34)CC2)[nH]c2ccccc12` [Compound 40] was 2240 nM. In the case of `O=c1[nH]c(NCCCN2CCC(c3n[nH]c4cc(F)ccc34)CC2)nc2ccccc12` [Compound 25], in data set [1], the IC50 was 2320 nM. Still for that read-out and setting: the same measure for `CC1(C)Cc2c(N)c(Cl)cc(C(=O)NC3CCN(CCCCNc4nc(O)c5ccccc5n4)CC3)c2O1` [Compound 5]: 2640 nM. As to `O=c1[nH]c(NCCN2CCN(c3n[nH]c4ccccc34)CC2)nc2ccc(Cl)cc12` [Compound 1], the melting point came out at 186 °C. With `O=c1[nH]c(NCCCN2CCC(c3noc4cc(F)ccc34)CC2)nc2ccccc12` [Compound 26], the IC50 in data set [1] was 1630 nM. The same measure, in the same setting: the same measure for `O=c1[nH]c(NCCN2CCN(c3n[nH]c4cc(F)ccc34)CC2)nc2ccccc12` [Compound 41]: 546 nM. On the same count and under the same terms, the same measure for `O=c1[nH]c(NCCCN2CCC(c3c[nH]c4ccccc34)CC2)nc2ccccc12` [Compound 20]: 5300 nM; for `O=c1[nH]c(NCCCN2CCN(c3nsc4ccccc34)CC2)nc2ccccc12` [Compound 24]: 4950 nM; for `O=c1[nH]c(NCCCN2CCC(n3c(=O)[nH]c4ccccc43)CC2)nc2ccccc12` [Compound 29]: 4650 nM.

With `CO[C@@H]1CN(CCCNc2nc(O)c3ccccc3n2)CC[C@@H]1NC(=O)c1cc(Cl)c(N)c2c1OCCC2` [Compound 6], the IC50 in data set [1] is 2740 nM. Still for that read-out and setting: the value for `O=C(c1ccc(F)cc1)C1CCN(CCNc2nc3ccccc3c(=O)[nH]2)CC1` [Compound 46] was 1870 nM.

Consider `O=c1[nH]c(NCCCN2CCC(Nc3cccc4ccccc34)CC2)nc2ccccc12` [Compound 42], for which the IC50 in data set [1] is 8950 nM. Still for that read-out and setting: the same measure for `CO[C@H]1CN(CCCNc2nc3ccccc3c(=O)[nH]2)CC[C@H]1NC(=O)c1cc(Cl)cc2c1OC(C)(C)C2` [Compound 18]: 4520 nM. The molecule `O=c1[nH]c(NCCCN2CCC(O)(c3ccc(Cl)cc3)CC2)nc2ccccc12` [Compound 2] had a melting point of 178.4 °C. For the same molecule, the IC50 in data set [1] was 973 nM. For the molecule `O=c1[nH]c(NCCN2CCC(c3n[nH]c4cc(F)ccc34)CC2)nc2ccccc12` [Compound 21], the IC50 in data set [1] was 520 nM. Still for that read-out and setting: the same measure for `CO[C@@H]1CN(CCCNc2nc(O)c3ccccc3n2)CCN1NC(=O)c1cc(Cl)c(N)c2c1OC(C)(C)C2` [Compound 8]: 2110 nM; for `Nc1c(Cl)cc(C(=O)OCC2CCN(CCNc3nc4ccccc4c(=O)[nH]3)CC2)c2c1OCCO2` [Compound 7]: 3440 nM; for `O=C(NC1CCN(CCCNc2nc3ccccc3c(=O)[nH]2)CC1)c1ccccc1` [Compound 23]: 2540 nM.

(Values after patent publication US10150757B2, “Quinazolinone derivatives as PARP inhibitors” (Janssen Pharmaceutica NV, priority 2004, dated 2018).)
